The record followed here is ChEMBL document CHEMBL1201862, “PubChem BioAssay data set” (2004).

SMILES strings stand for the structures.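 All cell lines were grown in 96-well plates and treated with compound for 48 hours. Abbreviation: GI50, concentration required for 50% inhibition of growth.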 Calls of active or inactive are those of the source. No stated cut-off is given here; in the data, active = GI50 up to about 1.1 µM and inactive = higher.

Some test systems named below: MDA-MB-435; SK-MEL-5; SK-MEL-28; LOX IMVI; A549; OVCAR-4; HCT-15; Hs-578T; ACHN; SK-MEL-2; IGROV-1; NCI-H226; SF-295; EKVX; MDA-MB-231; K562; UACC-257; COLO 205; MCF7; SF-539.
What all share (assay): NCI-60 cell line screen, 48 h

On to `C[N+]1(CCCC[N+]2(C)CCCCCCC2)CCCCCCC1`, for which the GI50 with MDA-MB-435, in the experiment on SK-MEL-5, in the experiment with SK-MEL-28, in the experiment with LOX IMVI, with A549 and in the experiment on OVCAR-4 was > 100 µM (inactive) throughout. Also, the GI50 with HCT-15 is above 100 µM; in the experiment on Hs-578T, 0.227 µM (active); with ACHN, > 100 µM (inactive); with SK-MEL-2 it was > 100 µM (inactive); in the experiment with IGROV-1, > 100 µM (inactive); with NCI-H226, > 100 µM (inactive). The GI50 in the experiment with SF-295, with EKVX, in the experiment with MDA-MB-231, in the experiment with K562 and in the experiment with UACC-257 was > 100 µM (inactive) throughout.
On to `CCC1(O)CC(CCN(Cc2ccccc2)C(=O)OCc2ccccc2)C(OCc2ccccc2)C1O` (configuration not stated), for which the GI50 was 18.4 µM (inactive) with MDA-MB-435; 15.1 µM (inactive) in the experiment with SK-MEL-5; 16.2 µM (inactive) with COLO 205; 15.7 µM (inactive) in the experiment on SK-MEL-28; 21.9 µM (inactive) with LOX IMVI; 9.93 µM (inactive) in the experiment with A549. For the same molecule, the GI50 was 7.66 µM (inactive) in the experiment on OVCAR-4; 13.4 µM in the experiment with HCT-15; 17 µM (inactive) with ACHN; 14.4 µM (inactive) in the experiment on SK-MEL-2; 20.4 µM (inactive) in the experiment on IGROV-1; 10.7 µM (inactive) with NCI-H226. Besides, the GI50 was 6.38 µM (inactive) in the experiment with MCF7; 11.1 µM (inactive) in the experiment with SF-295; 15.7 µM (inactive) with EKVX; 27.2 µM (inactive) with MDA-MB-231; 4.69 µM (inactive) with K562; 16.1 µM (inactive) in the experiment with UACC-257.
Take `CS(=O)(=O)c1nc(-c2cc3c(c(S(C)(=O)=O)n2)CCC3)cc2c1CCCCC2`: the GI50 in the experiment on MDA-MB-435, in the experiment on SK-MEL-5, with COLO 205, in the experiment with SK-MEL-28, in the experiment on LOX IMVI and in the experiment on A549 was > 100 µM (inactive) each time. Moreover, the GI50 in the experiment with OVCAR-4 is > 100 µM (inactive); in the experiment on HCT-15 it was above 100 µM; in the experiment with Hs-578T it was 9.08 µM (inactive); with ACHN, 45 µM (inactive); in the experiment with SK-MEL-2, 24.8 µM (inactive); with IGROV-1, 20.1 µM (inactive). The GI50 in the experiment on NCI-H226 is 56.6 µM (inactive); with SF-295, 31.7 µM (inactive); in the experiment with EKVX it was > 100 µM (inactive); in the experiment with MDA-MB-231, 54.7 µM (inactive); with K562 it was > 100 µM (inactive); in the experiment with UACC-257 it was > 100 µM (inactive).
Turning to `C=C1C(O)CC[C@]2(C)C1C1OC(C)(C)O[C@]13CC(=O)C(C)=C([C@H]1OC(C)(C)OC12)C3(C)C` (some centres not stated), the GI50 in the experiment on MDA-MB-435, with SK-MEL-5, with COLO 205, in the experiment with SK-MEL-28, with LOX IMVI and with A549 was > 100 µM (inactive) in each case. Further, the GI50 in the experiment with OVCAR-4 was 96.4 µM (inactive); with HCT-15 it was above 100 µM; in the experiment on ACHN, 92 µM (inactive); in the experiment with IGROV-1 it was > 100 µM (inactive); with NCI-H226 it was > 100 µM (inactive); with MCF7, 65.8 µM (inactive). For the same molecule, the GI50 in the experiment on SF-295 is > 100 µM (inactive); in the experiment with EKVX, > 100 µM (inactive); in the experiment with MDA-MB-231, > 100 µM (inactive); with SF-539, > 100 µM (inactive); in the experiment on K562, 90.2 µM (inactive); with UACC-257 it was > 100 µM (inactive).
Turning to `CC(C)=CC(=O)OC1C2C(C)C(=O)OC2C(O)C(C)C2C=CC(=O)C21C` (configuration not stated), the GI50 is 3.32 µM (inactive) with SK-MEL-5; 1.87 µM (inactive) in the experiment on COLO 205; 1.34 µM (inactive) in the experiment with SK-MEL-28; 0.918 µM (active) in the experiment with LOX IMVI; 8.65 µM (inactive) in the experiment with A549; 3.13 µM (inactive) with OVCAR-4. Besides, the GI50 with HCT-15 was 2 µM; in the experiment on SK-MEL-2 it was 4.15 µM (inactive); with IGROV-1, 3.33 µM (inactive); with NCI-H226, 5.22 µM (inactive); in the experiment on MCF7 it was 2.43 µM (inactive); with SF-295, 6.14 µM (inactive). Moreover, the GI50 with EKVX is 2.92 µM (inactive); in the experiment with SF-539, 3.61 µM (inactive); with K562, 2.14 µM (inactive); with UACC-257 it was 3.94 µM (inactive).
For the molecule `CN1OC(=O)N(C)C1c1ccccc1` (configuration not stated), the GI50 with SK-MEL-5, in the experiment on COLO 205, with SK-MEL-28, in the experiment on LOX IMVI, in the experiment with A549 and with OVCAR-4 was > 100 µM (inactive) in each case. Further, the GI50 in the experiment with HCT-15 is above 100 µM; in the experiment on SK-MEL-2, > 100 µM (inactive); in the experiment on IGROV-1, > 100 µM (inactive); in the experiment on NCI-H226 it was > 100 µM (inactive); with MCF7, > 100 µM (inactive); in the experiment on SF-295 it was > 100 µM (inactive). The GI50 with EKVX, in the experiment with SF-539, with K562 and in the experiment on UACC-257 was > 100 µM (inactive) throughout.
Take `CC(C)CCCCCCCCCCCCC(=O)NCC(=O)NC1C(C)OC(Nc2ncnc3c2ncn3C)C(O)C1O` (configuration not stated): the GI50 in the experiment on SK-MEL-5 was > 74.3 µM (inactive); in the experiment on COLO 205, 3.81 µM (inactive); in the experiment on SK-MEL-28, > 100 µM (inactive); in the experiment with LOX IMVI, 5.3 µM (inactive); in the experiment on A549, 8.28 µM (inactive); with OVCAR-4, 6.41 µM (inactive). In addition, the GI50 in the experiment on HCT-15 is above 100 µM; with SK-MEL-2, 8.34 µM (inactive); in the experiment on IGROV-1, 2.94 µM (inactive); in the experiment on NCI-H226, 2.16 µM (inactive); in the experiment with MCF7, > 100 µM (inactive); in the experiment with SF-295, 6.4 µM (inactive). Besides, the GI50 in the experiment with EKVX was > 100 µM (inactive); in the experiment on SF-539, 2.82 µM (inactive); in the experiment on K562, > 73.3 µM (inactive); in the experiment with UACC-257, 19.4 µM (inactive).
`CN1CN(c2ccccc2)C2(CCN(CCCCCCF)CC2)C1=O`: the GI50 with MDA-MB-435 was > 100 µM (inactive); in the experiment with SK-MEL-5, 38.1 µM (inactive); with COLO 205, 21.1 µM (inactive); in the experiment on SK-MEL-28, > 100 µM (inactive); with LOX IMVI, > 100 µM (inactive); with A549, 57.7 µM (inactive). Further, the GI50 is 54.5 µM in the experiment with HCT-15; 31.6 µM (inactive) in the experiment with ACHN; 40.3 µM (inactive) with IGROV-1; > 100 µM (inactive) with NCI-H226; 23.8 µM (inactive) in the experiment with MCF7; 82 µM (inactive) in the experiment on SF-295. Also, the GI50 was 48.6 µM (inactive) with EKVX; 81.1 µM (inactive) with MDA-MB-231; 28.8 µM (inactive) in the experiment on SF-539; > 100 µM (inactive) with K562; 35.2 µM (inactive) in the experiment on UACC-257.
For `CC(C(=O)O)c1ccc(-n2nnc3c(=O)[nH][nH]c(=O)c32)cc1` (configuration not stated), the GI50 in the experiment on MDA-MB-435, in the experiment with SK-MEL-5, in the experiment on COLO 205, in the experiment on SK-MEL-28, in the experiment on LOX IMVI and with A549 was > 100 µM (inactive) throughout. The GI50 in the experiment on OVCAR-4 is > 100 µM (inactive); in the experiment on HCT-15 it was above 100 µM; with ACHN it was > 100 µM (inactive); in the experiment on SK-MEL-2, > 100 µM (inactive); in the experiment on MCF7 it was > 100 µM (inactive); with SF-295 it was > 100 µM (inactive). Also, the GI50 with EKVX, in the experiment with MDA-MB-231, with K562 and in the experiment on UACC-257 was > 100 µM (inactive) each time.
In the case of `COc1ccc(C2Oc3cc(OC)c(O)cc3[C@@H]2C)cc1` (some centres not stated), the GI50 in the experiment with SK-MEL-5 is 31.1 µM (inactive); in the experiment with COLO 205 it was > 100 µM (inactive); in the experiment on SK-MEL-28, 56.8 µM (inactive); in the experiment on LOX IMVI, 14.3 µM (inactive); with A549 it was 59 µM (inactive); with OVCAR-4 it was 32.5 µM (inactive). Besides, the GI50 in the experiment with HCT-15 was 16.5 µM; in the experiment on ACHN it was 16.5 µM (inactive); with SK-MEL-2, 43 µM (inactive); in the experiment with IGROV-1, > 10 µM (inactive); in the experiment with NCI-H226 it was 17.2 µM (inactive); with SF-295 it was > 100 µM (inactive). Besides, the GI50 in the experiment on EKVX was 56.4 µM (inactive); in the experiment on SF-539 it was > 100 µM (inactive); with K562, 31.5 µM (inactive); in the experiment with UACC-257 it was 44.6 µM (inactive).
In the case of `CCOC(OC1=C(C#N)CCCC1)C(CC)[Se]c1ccccc1[N+](=O)[O-]` (configuration not stated), the GI50 with SK-MEL-5 is 15.1 µM (inactive); in the experiment on COLO 205 it was 29.6 µM (inactive); in the experiment on SK-MEL-28, 34 µM (inactive); in the experiment with LOX IMVI it was 16 µM (inactive); with A549, 57.5 µM (inactive); in the experiment on OVCAR-4, 17.9 µM (inactive). In addition, the GI50 with HCT-15 was 18.5 µM; in the experiment on ACHN, 29.1 µM (inactive); with SK-MEL-2, 21 µM (inactive); in the experiment on IGROV-1 it was 23.9 µM (inactive); with NCI-H226, 17.7 µM (inactive); with SF-295 it was 22.2 µM (inactive). Besides, the GI50 is 30.8 µM (inactive) in the experiment with EKVX, 20 µM (inactive) with SF-539, 33.6 µM (inactive) with K562 and > 100 µM (inactive) with UACC-257.
`Nc1c(C(=O)c2ccccc2)nnc2ccccc12`: the GI50 with MDA-MB-435 is 21.9 µM (inactive); in the experiment on SK-MEL-5, 16.7 µM (inactive); in the experiment with COLO 205 it was 18.5 µM (inactive); with SK-MEL-28, 43.9 µM (inactive); in the experiment with LOX IMVI, 32.4 µM (inactive); with A549, 37.3 µM (inactive). Moreover, the GI50 in the experiment with OVCAR-4 was 29.8 µM (inactive); in the experiment with HCT-15, 30.1 µM; with ACHN, 24.8 µM (inactive); in the experiment on SK-MEL-2 it was 17.4 µM (inactive); in the experiment on IGROV-1 it was 26.6 µM (inactive); in the experiment on NCI-H226, 30.4 µM (inactive). Moreover, the GI50 in the experiment with MCF7 was 20.4 µM (inactive); in the experiment with EKVX it was 22.6 µM (inactive); in the experiment on MDA-MB-231, 18.2 µM (inactive); in the experiment on SF-539, 27.4 µM (inactive); in the experiment with K562, 30.8 µM (inactive); with UACC-257 it was 28.2 µM (inactive).
